Read-outs that look alike come from different tables or passages of the source.
How the values were obtained:
[1] = system: T- and B- lymphocyte isolated from mouse spleens; test: Lymphocyte Blastogenesis Assay; type: in vivo; conditions: for RPMI CONTROL: no mitogen (Table 7); for activation at 25 mg/kg / activation at 50 mg/kg / activation at 100 mg/kg / activation at 12.5 mg/kg / activation at 200 mg/kg: Mus musculus, Lymphocyte; for RPMI: no mitogen (Table 8)
Text: This assay measures the ability of the compound under test to affect DNA synthesis and mitosis of T- and B- lymphocyte isolated from mouse spleens.
Mitogens are substances which stimulate DNA synthesis and mitosis. The mitogens used in these studies were phytohemaglutinin (PHA) which is isolated from the red kidney bean and concanavalin-A (Con-A) which is isolated form the jack bean. Con-A binds to specific receptors (glycoproteins) containing mannosyl or glycosyl moieties and stimulates all murine T-cells to synthesize DNA, divide, and release lymphokines. Con-A in a soluble form allows distinction between T- and B-cells in the mouse, because although both T- and B-cells can bind 106 molecules of Con-A per cell, only T-cells are stimulated when this lectin is presented in a soluble form. PHA stimulates only subpopulations, T-2 cells, of T-cells in the mouse. Also, Con-A stimulates the production of cytokines such as Interleukin-2 (IL-2). In humans, both T- and B-cells are probably stimulated. The activation of B-cells by PHA may be indirect and mediated by the release of soluble mediators from PHA-activated T-cells.
The lymphocyte blastogenesis test is a method to assess the ability of immunocompetent T- or B-cells to respond to a polyclonal mitogen (i.e. PHA or Con-A) or a specific antigen. It may be performed on lymphocytes obtained from mice treated with immunostimulators in vivo or the entire assay can be performed in vitro. The assay as described below uses minimal doses of polyclonal mitogens to induce blastogenesis (proliferation measure by DNA synthesis), in order to be able to assess the phenomena of amplification.
1. Sacrifice two mice/experimental group by cervical dislocation.
14. […]
15. Include in the experiment a control plate which contains the same cells group as above, but receive a 0.1 ml of media instead of mitogen.
18. After 48 hours all wells receive 0.025 mls of a 0.4 microcurie/ml solution of C-14 methyl thymidine and incubate at 37 C, 5% CO-2 for 18 hours.

[2] = system: plaque forming cells, antibody specific to sheep red blood cells; test: Jerne Hemolytic Plaque Assay; type: in vivo, mice
Description: This assay measures the IgM or IgG isotypes of specific antibody produced by antigen used to immunize the mice. […] The direct assay detects IgM and the indirect assay detects IgG-specific antibody.
Washed spleen cells are added to an agarose (FMC, Rockland, Me.) preparation containing sheep red blood cells (SRBC) and guinea pig complement. A drop of this mixture is transferred to a small petri dish; a cover slip is then placed over the drop to flatten it. The agarose prep is allowed to solidify. Then, the dishes are placed in a small humidified changer inside a CO-2 incubator overnight.
Small pinpoint cleared areas (plaques) will be observed under the cover slip. The cleared areas are caused by antibody, specific to the SRBC's being released by stimulated spleen cells and in conjunction with the complement, lyse surrounding SRBC's. These plaque forming cells (PFC's) are counted, and calculations are performed to obtain PFC's per […] spleen cells.
1. Spleens are harvested from mice according to a standard procedure and adjusted to a final concentration of 20% in […].
14. Count and record the number of hemolytic plaques per plate. Average plaque counts between the duplicate sets. Multiply the average number of plaques per group by 2.5 to obtain the number of plaque forming cells per million spleen cells.

Structure (SMILES): O=C1CCCC(C2(O)C(=O)OC3C(O)COC32O)C1 (single isomer, unassigned) [KCBL-A]
- CON-A 6 ug/ml ([1]; 12.5 mg/kg (Table 7)): 3412.0 counts per minute
- PHA 14 ug/ml ([1]; 12.5 mg/kg (Table 7)): 1450.0 counts per minute
- RPMI CONTROL ([1]; 12.5 mg/kg): 94.0 counts per minute
- CON-A 6 ug/ml ([1]; 25.0 mg/kg (Table 7)): 5657.0 counts per minute
- PHA 14 ug/ml ([1]; 25.0 mg/kg (Table 7)): 2178.0 counts per minute
- RPMI CONTROL ([1]; 25.0 mg/kg): 77.0 counts per minute
- CON-A 6 ug/ml ([1]; 50.0 mg/kg (Table 7)): 5059.0 counts per minute
- PHA 14 ug/ml ([1]; 50.0 mg/kg (Table 7)): 2369.0 counts per minute
- RPMI CONTROL ([1]; 50.0 mg/kg): 50.0 counts per minute
- CON-A 6 ug/ml ([1]; 100.0 mg/kg (Table 7)): 4104.0 counts per minute
- PHA 14 ug/ml ([1]; 100.0 mg/kg (Table 7)): 2384.0 counts per minute
- RPMI CONTROL ([1]; 100.0 mg/kg): 76.0 counts per minute
- activation at 25 mg/kg ([1]; 25.0 mg/kg (Table 7), read-out: % INCREASE (CON-A 6 ug/ml)): 56.6%
- activation at 25 mg/kg ([1]; 25.0 mg/kg (Table 7), read-out: % INCREASE (PHA 14 ug/ml)): 26.1%
- activation at 50 mg/kg ([1]; 50.0 mg/kg (Table 7), read-out: % INCREASE (CON-A 6 ug/ml)): 40%
- activation at 50 mg/kg ([1]; 50.0 mg/kg (Table 7), read-out: % INCREASE (PHA 14 ug/ml)): 37.1%
- activation at 100 mg/kg ([1]; 100.0 mg/kg (Table 7), read-out: % INCREASE (CON-A 6 ug/ml)): 13.6%
- activation at 100 mg/kg ([1]; 100.0 mg/kg (Table 7), read-out: % INCREASE (PHA 14 ug/ml)): 38%
- % INCREASE ([2]; 12.5 mg/ml (Table 10)): 100%
- PFC ([2]; 12.5 mg/ml (Table 10)): 112.00 PFC/1 MILLION CELLS
- % INCREASE ([2]; 25 mg/kg (Table 10)): 104%
- PFC ([2]; 25 mg/kg (Table 10)): 115.00 PFC/1 MILLION CELLS
- % INCREASE ([2]; 50 mg/kg (Table 10)): 193%
- PFC ([2]; 50 mg/kg (Table 10)): 165.00 PFC/1 MILLION CELLS
- % INCREASE ([2]; 100 mg/kg (Table 10)): 318%
- PFC ([2]; 100 mg/kg (Table 10)): 235.00 PFC/1 MILLION CELLS
- % INCREASE ([2]; 200 mg/kg (Table 10)): 215%
- PFC ([2]; 200 mg/kg (Table 10)): 177.50 PFC/1 MILLION CELLS

Structure (SMILES): O=C1CCCC(C2(O)C(=O)OC3C(O)COC32O)C1 (single isomer, unassigned) [KCBL-B]
- CON-A 2.25 ug/ml ([1]; 12.5 mg/kg (Table 8)): 865.6 counts per minute
- PHA 14.0 ug/ml ([1]; 12.5 mg/kg (Table 8)): 1733.1 counts per minute
- RPMI ([1]; 12.5 mg/kg): 67.6 counts per minute
- CON-A 2.25 ug/ml ([1]; 25 mg/kg (Table 8)): 1309.6 counts per minute
- PHA 14.0 ug/ml ([1]; 25 mg/kg (Table 8)): 3512.1 counts per minute
- RPMI ([1]; 25 mg/kg): 84.3 counts per minute
- CON-A 2.25 ug/ml ([1]; 50 mg/kg (Table 8)): 1130.6 counts per minute
- PHA 14.0 ug/ml ([1]; 50 mg/kg (Table 8)): 2540.7 counts per minute
- RPMI ([1]; 50 mg/kg): 56.2 counts per minute
- CON-A 2.25 ug/ml ([1]; 100 mg/kg (Table 8)): 1736.7 counts per minute
- PHA 14.0 ug/ml ([1]; 100 mg/kg (Table 8)): 3515.4 counts per minute
- RPMI ([1]; 100 mg/kg): 84.9 counts per minute
- CON-A 2.25 ug/ml ([1]; 200 mg/kg (Table 8)): 2008.0 counts per minute
- PHA 14.0 ug/ml ([1]; 200 mg/kg (Table 8)): 3305.8 counts per minute
- RPMI ([1]; 200 mg/kg): 52.0 counts per minute
- activation at 12.5 mg/kg ([1]; 12.5 mg/kg (Table 8), read-out: % INCREASE (CON-A 2.25 ug/ml)): 123%
- activation at 12.5 mg/kg ([1]; 12.5 mg/kg (Table 8), read-out: % INCREASE (PHA 14.0 ug/ml)): 12.1%
- activation at 25 mg/kg ([1]; 25 mg/kg (Table 8), read-out: % INCREASE (CON-A 2.25 ug/ml)): 237%
- activation at 25 mg/kg ([1]; 25 mg/kg (Table 8), read-out: % INCREASE (PHA 14.0 ug/ml)): 127%
- activation at 50 mg/kg ([1]; 50 mg/kg (Table 8), read-out: % INCREASE (CON-A 2.25 ug/ml)): 191%
- activation at 50 mg/kg ([1]; 50 mg/kg (Table 8), read-out: % INCREASE (PHA 14.0 ug/ml)): 64.4%
- activation at 100 mg/kg ([1]; 100 mg/kg (Table 8), read-out: % INCREASE (CON-A 2.25 ug/ml)): 347%
- activation at 100 mg/kg ([1]; 100 mg/kg (Table 8), read-out: % INCREASE (PHA 14.0 ug/ml)): 128%
- activation at 200 mg/kg ([1]; 200 mg/kg (Table 8), read-out: % INCREASE (CON-A 2.25 ug/ml)): 418%
- activation at 200 mg/kg ([1]; 200 mg/kg (Table 8), read-out: % INCREASE (PHA 14.0 ug/ml)): 114%
- % INCREASE ([2]; 25 mg/kg (Table 10)): 39%
- PFC ([2]; 25 mg/kg (Table 10)): 66.25 PFC/1 MILLION CELLS
- % INCREASE ([2]; 50 mg/kg (Table 10)): 218%
- PFC ([2]; 50 mg/kg (Table 10)): 151.25 PFC/1 MILLION CELLS
- % INCREASE ([2]; 100 mg/kg (Table 10)): 232%
- PFC ([2]; 100 mg/kg (Table 10)): 157.5 PFC/1 MILLION CELLS
- % INCREASE ([2]; 200 mg/kg (Table 10)): 171%
- PFC ([2]; 200 mg/kg (Table 10)): 128.75 PFC/1 MILLION CELLS

Structure (SMILES): O=C1CCC(C2(O)C(=O)OC3C(O)COC32O)C1 (single isomer, unassigned) [L-KCPBL-A]
- % INCREASE ([2]; 25 mg/kg (Table 12)): 233%
- PFC ([2]; 25 mg/kg (Table 12)): 162.5 PFC/1 MILLION CELLS
- % INCREASE ([2]; 50 mg/kg (Table 12)): 151%
- PFC ([2]; 50 mg/kg (Table 12)): 122.5 PFC/1 MILLION CELLS
- % INCREASE ([2]; 100 mg/kg (Table 12)): 120%
- PFC ([2]; 100 mg/kg (Table 12)): 107.5 PFC/1 MILLION CELLS
- % INCREASE ([2]; 200 mg/kg (Table 12)): 202%
- PFC ([2]; 200 mg/kg (Table 12)): 147.5 PFC/1 MILLION CELLS
- antibody production / PFC, dose dependence ([2]; vs control): stimulates T-dependent antibody production, but not in a dose response fashion
